Experiments:
[1] = tested on: genotype 1a-H77 subgenomic replicon cell line; experiment: microbe, parasite or virus in culture; format: cell-based, HCV; conditions: Hepatitis C virus, read-out: EC50 1a
[2] = tested on: genotype 1b-Con1 subgenomic replicon cell line; experiment: microbe, parasite or virus in culture; format: cell-based, HCV; conditions: Hepatitis C virus, read-out: EC50 1b
[3] = biological target: T1, HCV polymerase 1B (Δ21 NS5B, BK) (Hepatitis C virus genotype 1b, UniProt P26663); experiment: biochemical
T1 construct: 20 to 50 nM Δ21 NS5B
Outline: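 Δ21 NS5B (genotype 1b, BK […]) preincubated 15 min RT with inhibitor, 2 mM MnCl2, pH 7.4, 60–125 μM GTP; started with 20 μM CTP/ATP, 1 μM 3H-UTP, 5 nM template RNA, run 2–4 h RT. Spermine-precipitated RNA filter-captured, scintillation counted; IC50 from tight-binding (Morrison) fit.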

[4] = biological target: T2, HCV polymerase 1A (Δ21 NS5B, H77) (Hepatitis C virus genotype 1a, UniProt P27958); experiment: biochemical; conditions: IC50 1a
T2 construct: 20 to 50 nM Δ21 NS5B
Outline: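 Radiometric assay with Δ21 NS5B (H77): 20 μM CTP, 20 μM ATP, 1 μM ^3H-UTP, 5 nM template RNA, 2–4 h at room temperature. RNA precipitated with spermine, filter-captured and counted. IC50 from non-linear fit of retained cpm vs inhibitor concentration (tight-binding equation).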

HCV = conditions: hepatitis C treatment regimens, background; cited from earlier work

T2 sequence (P27958 2421-2990, stated change not applied): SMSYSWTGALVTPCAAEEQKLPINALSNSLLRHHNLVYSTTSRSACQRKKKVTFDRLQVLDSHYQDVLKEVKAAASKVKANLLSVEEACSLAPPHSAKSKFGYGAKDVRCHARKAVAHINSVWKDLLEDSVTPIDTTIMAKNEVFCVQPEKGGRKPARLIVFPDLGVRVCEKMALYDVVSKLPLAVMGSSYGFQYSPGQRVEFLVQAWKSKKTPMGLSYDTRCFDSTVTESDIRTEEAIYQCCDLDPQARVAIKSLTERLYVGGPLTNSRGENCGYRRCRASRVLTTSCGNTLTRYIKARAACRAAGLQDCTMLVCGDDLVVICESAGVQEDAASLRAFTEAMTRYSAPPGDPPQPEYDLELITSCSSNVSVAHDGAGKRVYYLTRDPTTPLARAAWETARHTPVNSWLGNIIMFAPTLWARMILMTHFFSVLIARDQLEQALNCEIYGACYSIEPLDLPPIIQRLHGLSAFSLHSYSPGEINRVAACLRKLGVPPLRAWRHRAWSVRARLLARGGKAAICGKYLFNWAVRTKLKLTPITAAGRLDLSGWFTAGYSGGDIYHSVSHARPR
T1 sequence (P26663 2420-2989, stated change not applied): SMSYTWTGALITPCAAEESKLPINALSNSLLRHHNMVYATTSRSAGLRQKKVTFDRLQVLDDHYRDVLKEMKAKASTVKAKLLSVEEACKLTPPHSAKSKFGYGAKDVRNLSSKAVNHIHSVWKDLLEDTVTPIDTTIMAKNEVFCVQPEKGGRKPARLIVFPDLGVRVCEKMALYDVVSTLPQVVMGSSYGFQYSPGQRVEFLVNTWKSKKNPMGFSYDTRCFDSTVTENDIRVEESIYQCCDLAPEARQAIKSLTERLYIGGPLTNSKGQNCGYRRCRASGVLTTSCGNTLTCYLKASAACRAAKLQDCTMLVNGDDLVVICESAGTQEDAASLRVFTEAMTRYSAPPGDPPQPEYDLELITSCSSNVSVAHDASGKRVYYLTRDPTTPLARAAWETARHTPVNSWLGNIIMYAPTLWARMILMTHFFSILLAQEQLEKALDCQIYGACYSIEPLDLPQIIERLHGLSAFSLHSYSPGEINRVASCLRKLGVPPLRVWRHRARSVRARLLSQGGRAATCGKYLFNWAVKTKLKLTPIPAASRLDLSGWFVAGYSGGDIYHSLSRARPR

Compound	EC50 [1] [nM]	melting point [°C]	EC50 [2] [nM]	IC50 [3] [nM]	IC50 [4] [nM]	suppression of HCV levels / effectiveness (HCV)
CC(C)(C)c1cc(-n2ccc(=O)[nH]c2=O)cc(-c2ccc3cc(NS(C)(=O)=O)ccc3c2)c1Cl [IB-L0-2.14, N-(6-(3-tert-butyl-2-chloro-5-(2,4-dioxo-3,4-dihydropyrimidin-1(2H)-yl)phenyl)naphthalen-2-yl)methanesulfonamide]	100 to 1000	> 280	10 to 100			
CCOc1c(-c2ccc3cc(NS(C)(=O)=O)ccc3c2)cc(-n2ccc(=O)[nH]c2=O)cc1C(C)(C)C [IB-L0-2.23, N-(6-(3-tert-butyl-5-(2,4-dioxo-3,4-dihydropyrimidin-1(2H)-yl)-2-ethoxyphenyl)naphthalen-2-yl)methanesulfonamide]	100 to 1000	196 to 202	10 to 100			
COc1c(-c2ccc3cc(NS(C)(=O)=O)ccc3c2)cc(-n2ccc(=O)[nH]c2=O)cc1C(C)(C)CO [IB-L0-2.54, N-(6-(5-(2,4-dioxo-3,4-dihydropyrimidin-1(2H)-yl)-3-(1-hydroxy-2-methylpropan-2-yl)-2-methoxyphenyl)naphthalen-2-yl)methanesulfonamide]	10 to 100	256 to 257	10 to 100			
COc1c(-c2ccc3cc(NS(C)(=O)=O)ccc3c2)cc(-n2ccc(=O)[nH]c2=O)cc1-c1ccc(C)o1 [IB-L0-2.58, N-(6-(5-(2,4-dioxo-3,4-dihydropyrimidin-1(2H)-yl)-2-methoxy-3-(5-methylfuran-2-yl)phenyl)naphthalen-2-yl)methanesulfonamide]	10 to 100	174 to 178	< 10			
COc1c(-c2ccc3cc(NS(C)(=O)=O)ccc3c2)cc(-n2ccc(=O)[nH]c2=O)cc1C(F)(F)C(F)(F)F [IB-L0-2.60, N-(6-(5-(2,4-dioxo-3,4-dihydropyrimidin-1(2H)-yl)-2-methoxy-3-(perfluoroethyl)phenyl)naphthalen-2-yl)methanesulfonamide]	100 to 1000	162 to 165	10 to 100			
COc1c(-c2ccc3cc(NS(C)(=O)=O)ccc3c2)cc(-n2ccc(=O)[nH]c2=O)cc1C(C)(C)C(=O)O [IB-L0-2.77, 2-(5-(2,4-dioxo-3,4-dihydropyrimidin-1(2H)-yl)-2-methoxy-3-(6-(methylsulfonamido)naphthalen-2-yl)phenyl)-2-methylpropanoic acid]		> 300				
COc1c(C#C[Si](C)(C)C)cc(-n2ccc(=O)[nH]c2=O)cc1-c1ccc2cc(NS(C)(=O)=O)ccc2c1 [IB-L0-2.78, N-(6-(5-(2,4-dioxo-3,4-dihydropyrimidin-1(2H)-yl)-2-methoxy-3-((trimethylsilyl)ethynyl)phenyl)naphthalen-2-yl)methanesulfonamide]		175 to 178				
COc1c(C#Cc2ccc(NS(C)(=O)=O)cc2C(=O)N2CCOCC2)cc(-n2ccc(=O)[nH]c2=O)cc1C(C)(C)C [IB-L2-1.11, N-(4-((3-tert-butyl-5-(2,4-dioxo-3,4-dihydropyrimidin-1(2H)-yl)-2-methoxyphenyl)ethynyl)-3-(morpholine-4-carbonyl)phenyl)methanesulfonamide]	100 to 1000		10 to 100	10 to 100	10 to 100	
COc1c(C#Cc2ccc(NS(C)(=O)=O)cc2NC(C)=O)cc(-n2ccc(=O)[nH]c2=O)cc1C(C)(C)C [IB-L2-1.12, N-(2-((3-tert-butyl-5-(2,4-dioxo-3,4-dihydropyrimidin-1(2H)-yl)-2-methoxyphenyl)ethynyl)-5-(methylsulfonamido)phenyl)acetamide]	100 to 1000		10 to 100	10 to 100	10 to 100	
COc1c(I)cc(-n2ccc(=O)[nH]c2=O)cc1C#Cc1ccc(NS(C)(=O)=O)cc1C [IB-L2-1.15, N-(4-((5-(2,4-dioxo-3,4-dihydropyrimidin-1(2H)-yl)-3-iodo-2-methoxyphenyl)ethynyl)-3-methylphenyl)methanesulfonamide]	> 1000		100 to 1000	100 to 1000	100 to 1000	
COc1c(C#Cc2ccc(NS(C)(=O)=O)c3ccccc23)cc(-n2ccc(=O)[nH]c2=O)cc1C(C)(C)C [IB-L2-2.1, N-(4-((3-tert-butyl-5-(2,4-dioxo-3,4-dihydropyrimidin-1(2H)-yl)-2-methoxyphenyl)ethynyl)-naphthalen-1-yl)methanesulfonamide]	100 to 1000		100 to 1000	10 to 100	10 to 100	
COc1c(C(=O)Nc2ccc(NS(C)(=O)=O)cc2)cc(-n2ccc(=O)[nH]c2=O)cc1C(C)(C)C [IB-L3-1.1, 3-tert-butyl-5-(2,4-dioxo-3,4-dihydropyrimidin-1(2H)-yl)-2-methoxy-N-(4-(methylsulfon amido)phenyl)benzamide]	100 to 1000		10 to 100	10 to 100	10 to 100	
CC(C)(C)c1cc(-n2ccc(=O)[nH]c2=O)cc(C(=O)Nc2ccc(NS(C)(=O)=O)cc2)c1O [IB-L3-1.2, 3-tert-butyl-5-(2,4-dioxo-3,4-dihydropyrimidin-1(2H)-yl)-2-hydroxy-N-(4-(methylsulfonamide)phenyl)benzamide]	100 to 1000		10 to 100	< 10	10 to 100	
Cc1cc(=O)[nH]c(=O)n1-c1cc(C(=O)Nc2ccc(NS(C)(=O)=O)cc2)c(O)c(C(C)(C)C)c1 [IB-L3-1.4, 3-tert-butyl-2-hydroxy-5-(6-methyl-2,4-dioxo-3,4-dihydropyrimidin-1(2H)-yl)-N-(4-(methylsulfonamido)phenyl)benzamide]	> 1000		> 1000	10 to 100	100 to 1000	
COc1cc(NS(C)(=O)=O)ccc1C(=O)Nc1cc(-n2ccc(=O)[nH]c2=O)cc(C(C)(C)C)c1OC [IB-L4-1.1, N-(3-tert-butyl-5-(2,4-dioxo-3,4-dihydropyrimidin-1(2H)-yl)-2-methoxyphenyl)-2-methoxy-4-(methylsulfonamido)benzamide]	100 to 1000		10 to 100	10 to 100	< 10	
NC(=O)c1ncn([C@@H]2O[C@H](CO)[C@@H](O)[C@H]2O)n1 [ribavirin]						does not effectively suppress HCV levels

Reference: patent US8415351B2 (priority 2007, dated 2013)
